Measured values reported in ChEMBL document CHEMBL1152546, “N-[2-chloro-9H-purin-6-yl]-N-cyclopropylglycylamino acids and derivatives: synthesis, evaluation as a class of novel analgesics, and 3D QSAR analysis” (2009).

Columns and labels:
Mus musculus [1] = test: Analgesic activity in ICR mouse assessed as pain threshold variation at 25 umol/kg, po administered as single dose measured after 60 mins by tail flick test relative to control; format: functional
Mus musculus [2] = test: Analgesic activity in ICR mouse assessed as pain threshold variation at 25 umol/kg, po administered as single dose measured after 150 mins by tail flick test relative to control; format: functional
Mus musculus [3] = test: Analgesic activity in ICR mouse assessed as pain threshold variation at 12.5 umol/kg, po administered as single dose measured after 90 mins by tail flick test relative to control; format: functional
Mus musculus [4] = test: Analgesic activity in ICR mouse assessed as pain threshold variation at 6.25 umol/kg, po administered as single dose measured after 90 mins by tail flick test relative to control; format: functional
Mus musculus [5] = test: Analgesic activity in ICR mouse assessed as pain threshold variation at 25 umol/kg, po administered as single dose measured after 120 mins by tail flick test relative to control; format: functional
Mus musculus [6] = test: Analgesic activity in ICR mouse assessed as pain threshold variation at 25 umol/kg, po administered as single dose measured after 30 mins by tail flick test relative to control; format: functional
Mus musculus [7] = test: Analgesic activity in ICR mouse assessed as pain threshold variation at 6.25 umol/kg, po administered as single dose measured after 30 mins by tail flick test relative to control; format: functional
Mus musculus [8] = test: Analgesic activity in ICR mouse assessed as pain threshold variation at 25 umol/kg, po administered as single dose measured after 180 mins by tail flick test relative to control; format: functional
Mus musculus [9] = test: Analgesic activity in ICR mouse assessed as pain threshold variation at 12.5 umol/kg, po administered as single dose measured after 60 mins by tail flick test relative to control; format: functional
Mus musculus [10] = test: Analgesic activity in ICR mouse assessed as pain threshold variation at 12.5 umol/kg, po administered as single dose measured after 150 mins by tail flick test relative to control; format: functional
Mus musculus [11] = test: Analgesic activity in ICR mouse assessed as pain threshold variation at 6.25 umol/kg, po administered as single dose measured after 150 mins by tail flick test relative to control; format: functional
Mus musculus [12] = test: Analgesic activity in ICR mouse assessed as pain threshold variation at 12.5 umol/kg, po administered as single dose measured after 30 mins by tail flick test relative to control; format: functional
Mus musculus [13] = test: Analgesic activity in ICR mouse assessed as pain threshold variation at 25 umol/kg, po administered as single dose measured after 90 mins by tail flick test relative to control; format: functional
Mus musculus [14] = test: Analgesic activity in ICR mouse assessed as pain threshold variation at 6.25 umol/kg, po administered as single dose measured after 60 mins by tail flick test relative to control; format: functional
Mus musculus [15] = test: Analgesic activity in ICR mouse assessed as pain threshold variation at 12.5 umol/kg, po administered as single dose measured after 120 mins by tail flick test relative to control; format: functional
Mus musculus [16] = test: Analgesic activity in ICR mouse assessed as pain threshold variation at 6.25 umol/kg, po administered as single dose measured after 120 mins by tail flick test relative to control; format: functional
Mus musculus [17] = test: Analgesic activity in ICR mouse assessed as pain threshold variation at 12.5 umol/kg, po administered as single dose measured after 180 mins by tail flick test relative to control; format: functional
Mus musculus [18] = test: Analgesic activity in ICR mouse assessed as pain threshold variation at 6.25 umol/kg, po administered as single dose measured after 180 mins by tail flick test relative to control; format: functional
Mus musculus [19] = test: Analgesic activity in po dosed ICR mouse assessed as pain threshold variation administered as single dose measured after 30 to 180 mins by tail flick test; format: functional, organism-based

SMILES	Activity (Mus musculus [1]) [%]	Activity (Mus musculus [2]) [%]	Activity (Mus musculus [3]) [%]	Activity (Mus musculus [4]) [%]	Activity (Mus musculus [5]) [%]	Activity (Mus musculus [6]) [%]	Activity (Mus musculus [7]) [%]	Activity (Mus musculus [8]) [%]	Activity (Mus musculus [9]) [%]	Activity (Mus musculus [10]) [%]	Activity (Mus musculus [11]) [%]	Activity (Mus musculus [12]) [%]	Activity (Mus musculus [13]) [%]	Activity (Mus musculus [14]) [%]	Activity (Mus musculus [15]) [%]	Activity (Mus musculus [16]) [%]	Activity (Mus musculus [17]) [%]	Activity (Mus musculus [18]) [%]	Activity (Mus musculus [19])
NCCCC[C@H](NC(=O)CN(c1nc(Cl)nc2[nH]cnc12)C1CC1)C(=O)O	53.76	11.64	22.04	14.48	16.37	31.18	8.04	6.07	31.34	7.39	2.82	16.33	28.84	16.6	9.79	7.05	2.99	2.61	Dose-dependent effect
O=C(CN(c1ncnc2c1ncn2C1CCCCO1)C1CC1)N[C@@H](CCC(=O)OCc1ccccc1)C(=O)OCc1ccccc1 (some centres not stated)	34.74	14.14			20.71	32.61		10.93					25.2						
O=C(CN(c1nc(Cl)nc2[nH]cnc12)C1CC1)N[C@@H](CC(=O)OCc1ccccc1)C(=O)OCc1ccccc1	22.4	6.68			12.14	34.7		2.87					15.58						
O=C(CN(c1nc(Cl)nc2[nH]cnc12)C1CC1)N[C@@H](CO)C(=O)OCc1ccccc1	34.17	27.88			34.5	31.88		11.5					34.53						
NC(=O)CC[C@H](NC(=O)CN(c1nc(Cl)nc2[nH]cnc12)C1CC1)C(=O)O	38.4	11.38			17.75	33.11		9.07					41.1						
O=C(CN(c1ncnc2c1ncn2C1CCCCO1)C1CC1)N[C@@H](Cc1ccccc1)C(=O)OCc1ccccc1 (some centres not stated)	45.54	3.49			26.29	39.2		1.79					37.73						
NCCCC[C@H](NC(=O)CN(c1nc(Cl)nc2[nH]cnc12)C1CC1)C(=O)OCc1ccccc1	41.16	9.88	25.42	11.3	16.79	26.13	9.19	2.24	29.98	9.91	4.87	18.5	35.27	14.83	11.35	9.01	3.72	3.95	Dose-dependent effect
O=C(O)C[C@H](NC(=O)CN(c1nc(Cl)nc2[nH]cnc12)C1CC1)C(=O)O	38.9	11.63			21.95	19.85		3.17					25.14						
CSCC[C@H](NC(=O)CN(c1ncnc2c1ncn2C1CCCCO1)C1CC1)C(=O)OCc1ccccc1 (some centres not stated)	40.97	17.47			28.66	30.04		12.89					42.7						
O=C(CN(c1ncnc2c1ncn2C1CCCCO1)C1CC1)N[C@@H](Cc1ccc(O)cc1)C(=O)OCc1ccccc1 (some centres not stated)	35.82	8.71			17.44	20.53		5.02					36.45						
O=C(CN(c1nc(Cl)nc2[nH]cnc12)C1CC1)N[C@@H](CCC(=O)OCc1ccccc1)C(=O)OCc1ccccc1	53.74	44.46			45.94	52.8		29.87					50						
